Reference: ChEMBL document CHEMBL1146907, “New, potent P1/P2-morpholinone-based HIV-protease inhibitors” (Bioorg Med Chem Lett, 2006)

biological target: Human immunodeficiency virus type 1 protease (Human immunodeficiency virus 1, UniProt Q72874); test: Inhibition of HIV protease

Row | Structure (SMILES) | Ki [nM]
1 | COc1ccc(S(=O)(=O)N(CC2CCCC2)C[C@@H](O)CN2C(=O)C3(CCCCC3)OC[C@@H]2Cc2ccccc2)cc1 | 2
2 | COc1ccc(S(=O)(=O)N(CC2CCCC2)C[C@@H](O)CN2C(=O)[C@@H](Cc3ccccc3)OC[C@@H]2Cc2ccccc2)cc1 | 35
3 | COc1ccc(S(=O)(=O)N(CC2CCCC2)C[C@@H](O)CN2C(=O)[C@@H](CCCN)OC[C@@H]2Cc2ccccc2)cc1 | 5800
4 | COc1ccc(S(=O)(=O)N(CC2CCCC2)C[C@@H](O)CN2C(=O)[C@@H](CCN)OC[C@@H]2Cc2ccccc2)cc1 | 600
5 | COc1ccc(S(=O)(=O)N(CC2CCCC2)C[C@@H](O)CN2C(=O)C3(CC3)OC[C@@H]2Cc2ccccc2)cc1 | 9
6 | COc1ccc(S(=O)(=O)N(CC2CCCC2)N2C(=O)C3(CCOCC3)OC[C@@H]2Cc2ccccc2)cc1 | 23
7 | C=CC[C@@H]1OC[C@H](Cc2ccccc2)N(C[C@H](O)CN(CC2CCCC2)S(=O)(=O)c2ccc(OC)cc2)C1=O | 270
8 | COc1ccc(S(=O)(=O)N(CC2CCCC2)C[C@@H](O)CN2C(=O)[C@@H](CCO)OC[C@@H]2Cc2ccccc2)cc1 | 30
9 | COc1ccc(S(=O)(=O)N(CC2CCCC2)C[C@@H](O)CN2C(=O)[C@@H](CCN=[N+]=[N-])OC[C@@H]2Cc2ccccc2)cc1 | 81
10 | COc1ccc(S(=O)(=O)N(CC2CCCC2)C[C@@H](O)CN2C(=O)[C@@H](CCC(N)=O)OC[C@@H]2Cc2ccccc2)cc1 | 49
11 | COc1ccc(S(=O)(=O)N(CC2CCCC2)C[C@@H](O)CN2C(=O)[C@H](Cc3cccc(C#N)c3)OC[C@@H]2Cc2ccccc2)cc1 | 490
12 | COc1ccc(S(=O)(=O)N(CC2CCCC2)C[C@@H](O)CN2C(=O)[C@@H](CCC#N)OC[C@@H]2Cc2ccccc2)cc1 | 11
13 | C=CC[C@H]1OC[C@H](Cc2ccccc2)N(C[C@H](O)CN(CC2CCCC2)S(=O)(=O)c2ccc(OC)cc2)C1=O | 2
14 | COc1ccc(S(=O)(=O)N(CC2CCCC2)C[C@@H](O)CN2C(=O)[C@H](C)OC[C@@H]2Cc2ccccc2)cc1 | 38
15 | COc1ccc(S(=O)(=O)N(CC2CCCC2)C[C@@H](O)CN2C(=O)[C@@H](Cc3cccc(C#N)c3)OC[C@@H]2Cc2ccccc2)cc1 | 55
